Assays:
[1] = tested on: glutathione S-transferase (GST); test: Se-supplementing effect in Se-deficient mice: GST activity in liver; format: in vivo; conditions: relative to control 1.00 (control 4071.4 unit/mg protein), mean±SD
Method: (§1) It has been reported that high doses of sodium selenite can reduce the symptom of severely ill patient and enhance the therapeutic efficacy of chemotherapy agents for cancers. It remains unknown whether there are differences regarding the Se-supplementing effect between sodium selenosulfate and sodium selenite at pharmacologic doses. In this example, Se-deficient mice were intraperitoneally injected with sodium selenite and sodium selenosulfate at doses of 0.5 and 1 mg Se/kg for a week. The enzyme activity and selenium were measured to compare the Se-supplementing effect between the two selenium compounds.
(§2) Animals: Se-deficient male Kunming mice (body weight: 20-23 g) were purchased from the animal center of Anhui Medical University. Drugs Administration: 35 mice were randomly divided into 5 groups with 7 mice in each group. The mice in the control group were injected with normal saline, and those in other groups were injected respectively with different doses of sodium selenite and sodium selenosulfate (0.5 and 1 mg Se/kg) for 7 consecutive days. Biochemical parameters: 24 hours after the last Se administration, blood was sampled from ophthalmic veins to obtain serum by centrifugation, and then the Se form and glutathione peroxidase (GPx) activity therein were determined. Meanwhile, liver and kidney were excised and stored at −30° C., and a part of them were used to determine Se. A part of livers and kidneys were homogenized and centrifuged to obtain supernatant, and then GPx activity and glutathione S-transferase (GST) activity in livers were determined. Statistical analysis: Data were expressed as mean±SD. The differences between the groups were examined using ANOVA. A p value less than 0.05 was considered statistically significant.

[2] = tested on: Se-sufficient male Kunming mice; test: Toxicity to normal tissues in Se-sufficient mice, i.p. once daily for 14 days; format: in vivo; conditions: for mortality: FIG. 3; for hepatic tissue slices with hydropic or fatty degeneration / serum ALT and AST activity (hepatotoxicity): 2 mg Se/kg, 14 days; for hepatic tissue slices with hydropic or fatty degeneration: HE stain, selenite moderate (FIG. 5), selenosulfate slight (FIG. 6); for serum ALT and AST activity (hepatotoxicity): FIG. 4; for suppression of the growth of the mice (body weight): 2 and 3 mg Se/kg, same Se levels compared, FIG. 2
Method: Animals: Se-sufficient male Kunming mice (body weight: 23±1 g) were purchased from the Shanghai Laboratory Animal Center, Chinese Academy of Sciences. Drugs Administration: 50 mice were randomly divided into 5 groups with 10 mice in each group. The mice in the control group were injected intraperitoneally with normal saline, and the other groups were injected with sodium selenite (2 groups) and sodium selenosulfate (2 groups) respectively at 2 and 3 mg Se/kg once daily for 14 consecutive days. The mice in low dosage groups were sacrificed 24 hours after the last Se administration. Animal status: The body weight and dead status of the mice were recorded every day. Biochemical parameters: Blood was sampled from ophthalmic veins for determining serum ALT activity and AST activity. Pathology: Liver was excised for the determination. The slice was dyed by using HE. Statistical analysis: Data were expressed as mean±SD. The differences between the groups were examined using ANOVA. A p value less than 0.05 was considered statistically significant.

[3] = tested on: glutathione peroxidase (GPx); test: Se-supplementing effect in Se-deficient mice: GPx activity in serum, liver and kidney; format: in vivo; conditions: mean±SD; for Liver GPx: relative to control 1.00 (control 88.5 unit/mg protein); for Kidney GPx: relative to control 1.00 (control 142.8 unit/mg protein); for Serum GPx: relative to control 1.00 (control 525.5 unit/mL serum)
Method: as §1, §2

[4] = tested on: Human hepatoma cells (HepG2); test: Cell killing assay (MTT, 72 hours); format: cell-based; conditions: FIG. 7A
Method: (§3) Cell culture: Human hepatoma cells (HepG2) and human colorectal cancer cells (CaCo2) were cultivated at 37° C. under 5% CO2 by using EMEM cell culture media containing 10% Fetal Bovine serum. Cell killing assay: the tumor cells were added into a 96-well plate with a density of 5000 cells/well for 24 hours, and then the culture media were changed to those with different Se concentrations. At 72 hours, the cell numbers were determined by MTT protocol. Each treatment was conducted in 3 parallels, and the data were expressed by percent relative to cell numbers when no Se was added. Cell proliferation assay: HepG2 or CaCo2 cells were added into a 96-well plate with a density of 1000 cells/well for 24 hours, and then the culture media were changed to those with 12.5 μM Se. The day was defined as day 0. The cell numbers were determined by MTT protocol on day 0, 2, 4 and 6, respectively. Each treatment was conducted with 8 parallels, and the data were expressed with percent relative to the cell numbers on day 0. MTT assay: Each well was added with 20 μL MTT (5 mg/mL) 4 hours prior to the end of culture. After the culture was ended, the supernatant was discarded, and the formazan particles were dissolved in HCl-isopropanol (10 μL/well). The readings were recorded at 595 nm on a microplate reader.

[5] = Se-supplementing effect in Se-deficient mice: Se level in serum, liver and kidney; format: in vivo; conditions: mean±SD; for Serum Se: relative to control 1.00 (control 0.07 μg/mL serum); for Liver Se: relative to control 1.00 (control 0.15 μg/g liver); for Kidney Se: relative to control 1.00 (control 0.44 μg/g kidney)
Method: as §1, §2

[6] = tested on: Human hepatoma cells (HepG2); test: Cell proliferation assay (MTT, day 0-6); format: cell-based; conditions: 12.5 μM Se, day 0-6, MTT; FIG. 7B
Method: as §3

hepatoma H22 cell = test: Treatment of mice bearing H22 ascites with cisplatin with or without sodium selenosulfate; format: in vivo; conditions: for Survival time of dead mice: mean±SD
Method: Animals: Se-sufficient male Kunming mice (body weight: 20-23 g) were purchased from Shanghai Laboratory Animal Center, Chinese Academy of Sciences. Drugs Administration: 48 mice were divided randomly into 6 groups with 8 mice in each group. Each mouse was inoculated intraperitoneally with hepatoma H22 cell suspension (20×10^6 cells). The groups were classified into 3 cisplatin groups, 2 cisplatin plus Se-supplementing groups (the groups administrated with 8 and 10 mg/kg doses of cisplatin were treated with 0.6 and 0.75 mg Se/kg doses of sodium selenosulfate, respectively) and 1 control group in terms of the administration doses (5, 8 and 10 mg/kg) of cisplatin. The experiments were carried out with one week as a cycle. The experiments with cisplatin doses of 5 and 8 mg/kg were carried out for total 4 cycles, and those with cisplatin dose of 10 mg/kg were performed for total 3 cycles. From the first day of each cycle, the mice in cisplatin groups was intraperitoneally injected with the corresponding concentrations of cisplatin, and the mice in cisplatin plus Se-supplementing groups were injected intraperitoneally with the corresponding sodium selenosulfate doses of 0.6 and 0.75 mg Se/kg respectively 4 hours before the intraperitoneal injection of cisplatin. The treatment was performed for 5 consecutive days. The first cisplatin chemotherapy started at 48 hours after the inoculation of tumor cells. The animal status was recorded and the development of malignant ascites was observed. Statistical analysis: Data were expressed as mean±SD. The differences between the groups were examined using ANOVA. A p value less than 0.05 was considered statistically significant.

[7] = 2 mg Se/kg i.p. once daily 14 days
[8] = 3 mg Se/kg i.p. once daily 14 days
[9] = cisplatin 5 mg/kg i.p., 4 cycles
[10] = cisplatin 8 mg/kg i.p., 4 cycles
[11] = cisplatin 10 mg/kg i.p., 3 cycles

## O=[Se](O)O [Sodium selenite, sodium selenite]
[1]; 0.5 mg/kg i.p. 7 days
  Liver GST: 1.64 ± 0.23
[1]; 1.0 mg/kg i.p. 7 days
  Liver GST: 2.44 ± 0.14
[2]; [7]
  mortality: 20%
[2]
  hepatic tissue slices with hydropic or fatty degeneration: up to 80%
  serum ALT and AST activity (hepatotoxicity): made ALT and AST increased significantly
  suppression of the growth of the mice (body weight): significantly stronger than that of sodium selenosulfate
[2]; [8]
  mortality: 90%
[3]; 0.5 mg/kg i.p. 7 days
  Liver GPx: 19.8 ± 0.08
  Kidney GPx: 8.74 ± 0.14
  Serum GPx: 2.97 ± 0.37
[3]; 1.0 mg/kg i.p. 7 days
  Liver GPx: 22.2 ± 0.10
  Kidney GPx: 10.2 ± 0.14
  Serum GPx: 4.18 ± 0.26

## O=S(=O)([O-])[Se-].[Na+].[Na+] [Sodium selenosulfate, sodium selenosulfate]
[1]; 0.5 mg/kg i.p. 7 days
  Liver GST: 1.47 ± 0.29
[1]; 1.0 mg/kg i.p. 7 days
  Liver GST: 2.69 ± 0.23
[2]; [7]
  mortality: all the mice treated with sodium selenosulfate survived
[2]
  hepatic tissue slices with hydropic or fatty degeneration: 20%
  serum ALT and AST activity (hepatotoxicity): such phenomenon was not found
  suppression of the growth of the mice (body weight): could suppress the growth of the mice as compared with the control
[2]; [8]
  mortality: 20%
[3]; 0.5 mg/kg i.p. 7 days
  Liver GPx: 18.8 ± 0.19
  Kidney GPx: 7.74 ± 0.19
  Serum GPx: 3.10 ± 0.25
[3]; 1.0 mg/kg i.p. 7 days
  Liver GPx: 22.2 ± 0.16
  Kidney GPx: 9.09 ± 0.18
  Serum GPx: 4.41 ± 0.24
[4]
  killing effect on HepG2 cells: dose-dependent profile on killing HepG2 cells at levels of 6-18 μM
[5]; 0.5 mg/kg i.p. 7 days
  Serum Se: 5.69 ± 0.13
  Liver Se: 11.2 ± 0.09
  Kidney Se: 2.85 ± 0.10
[5]; 1.0 mg/kg i.p. 7 days
  Serum Se: 5.24 ± 0.39
  Liver Se: 15.2 ± 0.09
  Kidney Se: 3.90 ± 0.14
[6]
  suppression of proliferation of HepG2 cells: fully suppressed the proliferation of HepG2 cells

## N.N.[Cl][Pt][Cl] [Cisplatin, cisplatin]
Hepatoma H22 cell; cisplatin 5 mg/kg
  suppression of the development of malignant ascites: could not suppress the rapid development of malignant ascites
Hepatoma H22 cell; [9]
  Cure rate: 0%
  Death rate: 100%
  Survival time of dead mice: 20 ± 7 days
Hepatoma H22 cell; [10]
  Cure rate: 0%
  Death rate: 100%
  Survival time of dead mice: 31 ± 12 days
Hepatoma H22 cell; [11]
  Cure rate: 25%
  Death rate: 75%
  Survival time of dead mice: 21 ± 9 days
Hepatoma H22 cell; cisplatin 8 and 10 mg/kg
  suppression of the development of malignant ascites: could efficiently suppress the development of malignant ascites

From patent US8480995B2, “Use of sodium selenosulfate for supplementing selenium and enhancing the therapeutic efficacy of chemotherapy agents, and a rapid process for preparing sodium selenosulfate” (University of Science and Technology of China, priority 2007, dated 2013)
